This experiment has as its target T1, AF9-DOT1L interaction (Homo sapiens, UniProt P42568).
T1 construct: human AF9 AHD domain (475–568); made in house; host or cells: E. coli BL21(DE3)
T1 sequence (P42568 475-568): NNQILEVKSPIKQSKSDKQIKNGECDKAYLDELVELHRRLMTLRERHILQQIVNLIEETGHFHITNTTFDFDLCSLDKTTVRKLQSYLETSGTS
Put plainly: AlphaLisa assay, AF9-DOT1L interaction. Type of experiment: binding. Particulars: for IC50: MBP-protein 5 nM, biotinylated peptide 40 nM, 3 independent experiments with standard deviation, read-out: IC50 (μM) against the AF9-DOT1L interaction; for inhibition at 5 µM: read-out: % Inhibition at 5 μM against the AF9-DOT1L interaction. From the text: An AlphaLisa assay we previously developed was used for compound screening for inhibitors of the AF9-DOT1L interaction. The PPI takes the DOT1L-peptide coated donor beads and AF9 AHD coated acceptor beads together. The donor beads are illuminated with a laser beam (680 nm) to generate singlet oxygen radicals, which activate the adjacent acceptor beads to produce luminescence at 615 nm. When a compound can disrupt such PPI and separate the donor and acceptor beads, the highly unstable radicals are rapidly quenched by water without generating luminescence.
The cDNA for the human AF9 AHD domain (475–568) and ENL AHD domain (489–559) was synthesized (by Genscript, Piscataway, NJ, USA) and inserted into the pMAL c5X expression plasmid. The DOT1L peptide (Biotin-AHX-[…]) and AF4 peptide (Biotin-AHX-[…]) for the Alpha assay were purchased from Genscript.
Alpha assays were developed in our previous publication, using a Perkin-Elmer AlphaLisa anti-MBP kit, which contains streptavidin donor beads and anti-MBP acceptor beads. Briefly, the assay was performed using a MBP-protein (5 nM), a biotinylated peptide (40 nM), and increasing concentrations of a compound in 25 µL buffer (PBS with 0.5% BSA, pH 7.5) in 384-well plates according to the manufacturer’s protocol and measured with a Tecan SPARK microplate reader. Data were imported into Prism (version 5.0), and IC50 values from 3 independent experiments with standard deviation were obtained by using a standard dose-response curve fitting.
(In general: Alpha assays give light when donor and acceptor beads are brought close together.)

Counter-ions that a name gives are not always drawn.

Take “5-(4-(Tert-butyl)phenyl)-N-(piperidin-4-ylmethyl)-benzo[b]thiophene-2-carboxamide hydrochloride [Compound 55]”: the “% Inhibition at 5 μM against the AF9-DOT1L interaction” value (compound at 5 μM) was found to be 45%. For the compound `O=C(NCC1CCNCC1)c1cc2ccc(-c3ccc(N4CCCCC4)cc3)cc2[nH]1` [Compound 1], the IC50 came out at 3.3 ± 0.2 µM. For `O=C(NCC1CCNCC1)c1cc2ccc(-c3ccc(N4CCCC4)cc3)cc2[nH]1` [Compound 3, 6-(4-(1-Pyrrolinylphenyl)-N-(piperidin-4-ylmethyl)-1H-indole-2-carboxamide hydrochloride], the IC50 amounted to 2.8 ± 0.2 µM. As to `O=C(NCC1CCNCC1)c1cc2ccc(-c3ccc(C4CCCCC4)cc3)cc2[nH]1` [Compound 4, 6-(4-Cyclohexylphenyl)-N-(piperidin-4-ylmethyl)-1H-indole-2-carboxamide hydrochloride], the inhibition at 5 µM (compound at 5 μM) was determined as 31%. Still for that read-out and setting: as for `O=C(NCC1CCNCC1)c1cc2ccc(-c3ccc(N4CCNCC4)cc3)cc2[nH]1` [Compound 5], the figure is 40%. Same read-out and setting: with `O=C(NCC1CCNCC1)c1cc2ccc(-c3ccc(-c4ccsc4)cc3)cc2[nH]1` [Compound 6] the figure was 14%. The same measure, in the same setting: as for `O=C(NCC1CCNCC1)c1cc2ccc(-c3ccc(CCO)cc3)cc2[nH]1` [Compound 7], the figure is 5.6%. On to `CC(=O)c1ccc(-c2ccc3cc(C(=O)NCC4CCNCC4)[nH]c3c2)cc1` [Compound 8, 6-(4-Acetophenyl)-N-(piperidin-4-ylmethyl)-1H-indole-2-carboxamide hydrochloride], for which the inhibition at 5 µM (compound at 5 μM) was determined as 37%. The same measure, in the same setting: with `CC(C)(C)c1cccc(-c2ccc3cc(C(=O)NCC4CCNCC4)[nH]c3c2)c1` [Compound 9, 6-(3-(tert-Butyl)phenyl)-N-(piperidin-4-ylmethyl)-1H-indole-2-carboxamide hydrochloride] the figure was 17%. As to `O=C(NCC1CCNCC1)c1cc2ccc(-c3ccsc3)cc2[nH]1` [Compound 11], the “Inhibitory activity against the AF9-DOT1L interaction (in words)” value is “almost inactive”. Also, the inhibition at 5 µM (compound at 5 μM) stood at 10%. On to `O=C(NCC1CCNCC1)c1c[nH]c2cc(-c3ccc(N4CCOCC4)cc3)ccc12` [Compound 13, 6-(4-(Morpholinophenyl)-N-(piperidin-4-ylmethyl)-1H-indole-3-carboxamide hydrochloride], for which the inhibition at 5 µM (compound at 5 μM) came out at 29%.

`NCc1ccc(-c2ccc3c(C(=O)NCC4CCNCC4)c[nH]c3c2)cc1` [Compound 14]: the inhibition at 5 µM (compound at 5 μM) was determined as 11%.

With `O=C(NCC1CCNCC1)c1cc2cc(-c3ccc(N4CCOCC4)cc3)ccc2[nH]1` [Compound 17], the inhibition at 5 µM (compound at 5 μM) was found to be 52%.

As for `O=C(NCC1CCNCC1)c1cc2cc(-c3ccc(N4CCNCC4)cc3)ccc2[nH]1` [Compound 18], the inhibition at 5 µM (compound at 5 μM) came to 36%. Same read-out and setting: with `CC(C)(C)c1ccc(-c2ccc3[nH]c(C(=O)NCC4CCNCC4)cc3c2)cc1` [Compound 19] the figure was 13%; with `N#Cc1ccc(-c2ccc3[nH]c(C(=O)NCC4CCNCC4)cc3c2)cc1F` [Compound 20, 5-(3-Fluoro-4-cyanophenyl)-N-(piperidin-4-ylmethyl)-1H-indole-2-carboxamide hydrochloride], 8%.

`Cc1cc(C#N)ccc1-c1ccc2[nH]c(C(=O)NCC3CCNCC3)cc2c1` [Compound 21]: where the note is “compound at 5 μM”, the inhibition at 5 µM amounted to 0%. The same measure, in the same setting: with `O=C(NCC1CCNCC1)c1c[nH]c2ccc(-c3ccc(N4CCCCC4)cc3)cc12` [Compound 23, 5-(4-(Piperidin-1-yl)phenyl)-N-(piperidin-4-ylmethyl)-1H-indole-3-carboxamide hydrochloride] the figure was 43%; with `O=C(NCC1CCNCC1)c1cc2ccc(-c3ccc(N4CCOCC4)cc3)cc2s1` [Compound 26, 6-(4-(Morpholino)phenyl)-N-(piperidin-4-ylmethyl)-benzo[b]thiophene-2-carboxamide hydrochloride], 40%. Still for that read-out and setting: as for `CCN(CC)c1ccc(-c2ccc3cc(C(=O)NCC4CCNCC4)sc3c2)cc1` [Compound 27, 6-(4-(Diethylamino)phenyl)-N-(piperidin-4-ylmethyl)-benzo[b]thiophene-2-carboxamide hydrochloride], the figure is 25%; as for `O=C(NCC1CCNCC1)c1cc2ccc(-c3ccc(CN4CCCCC4)cc3)cc2s1` [Compound 28, 6-(4-(Piperidin-1-ylmethyl)phenyl)-N-(piperidin-4-ylmethyl)-benzo[b]thiophene-2-carboxamide hydrochloride], 45%; as for `O=C(NCC1CCNCC1)c1cc2ccc(-c3ccc(C(=O)N4CCCCC4)cc3)cc2s1` [Compound 29, 6-(4-(Piperidine-1-carbonyl)phenyl)-N-(piperidin-4-ylmethyl)-benzo[b]thiophene-2-carboxamide hydrochloride], 8%.

Take `O=C(NCC1CCNCC1)c1cc2ccc(-c3ccc(C(=O)N4CCCC4)cc3)cc2s1` [Compound 30]: for the setting “compound at 5 μM”, the inhibition at 5 µM turned out to be 0%. On the same count and under the same terms, with `O=C(NCC1CCNCC1)c1cc2ccc(N3CCC(N4CCCCC4)CC3)cc2s1` [Compound 31] the figure was 14%. In the case of `O=C(NCC1CCNCC1)c1cc2ccc(N3CCC(N4CCCC4)CC3)cc2s1` [Compound 32], under “compound at 5 μM”, the inhibition at 5 µM was 20%. `Cl.O=C(NCC1CCNCC1)c1cc2ccc(-c3ccc(C(=O)N4CCC(N5CCCCC5)CC4)cc3)cc2s1` [Compound 33, 6-(4-(4-(Piperidin-1-yl)piperidin-1-carbonyl)phenyl)-N-(piperidin-4-ylmethyl)-benzo[b]thiophene-2-carboxamide hydrochloride]: the “Inhibitory activity against the AF9-DOT1L interaction (in words)” value is “inactive”. Besides, the inhibition at 5 µM (compound at 5 μM) was 0%. In the same order, the values of `Cl.O=C(NCC1CCNCC1)c1cc2ccc(-c3ccc(C(=O)N4CCC(N5CCCC5)CC4)cc3)cc2s1` [Compound 34, 6-(4-(4-(Pyrrolidin-1-yl)piperidin-1-carbonyl)phenyl)-N-(piperidin-4-ylmethyl)-benzo[b]thiophene-2-carboxamide hydrochloride] are “inactive” and 5%.

Take `O=C(NCC1CCNCC1)c1cc2ccc(Nc3ccc(N4CCCCC4)cc3)cc2s1` [Compound 35, 6-((4-(Piperidin-1-yl)phenyl)amino)-N-(piperidin-4-ylmethyl)-benzo[b]thiophene-2-carboxamide hydrochloride]: the IC50 was 2.3 ± 0.2 µM. For the compound `O=C(NCC1CCNCC1)c1cc2ccc(Oc3ccc(Oc4ccc(Cl)cc4)cc3)cc2s1` [Compound 36, 6-(4-(4-Chlorophenoxyl)phenoxyl)-N-(piperidin-4-ylmethyl)-benzo[b]thiophene-2-carboxamide hydrochloride], the IC50 was roughly 5 µM. In addition, where the note is “compound at 5 μM”, the inhibition at 5 µM came to 50%.

In the case of `CC(=O)Nc1ccc(-c2ccc3cc(C(=O)NCC4CCNCC4)sc3c2)cc1` [Compound 38, 6-(4-(Acetamido)phenyl)-N-(piperidin-4-ylmethyl)-benzo[b]thiophene-2-carboxamide hydrochloride], under “compound at 5 μM”, the inhibition at 5 µM is 0%. Same read-out and setting: with `O=C(NCC1CCNCC1)c1cc2ccc(-c3ccc(CO)cc3)cc2s1` [Compound 39, 6-(4-(Hydroxylmethyl)phenyl)-N-(piperidin-4-ylmethyl)-benzo[b]thiophene-2-carboxamide hydrochloride] the figure was 0%.

Consider `CC(C)(C)c1ccc(-c2ccc3cc(C(=O)NCC4CCNCC4)sc3c2)cc1` [Compound 40, 6-(4-(Tert-butyl)phenyl)-N-(piperidin-4-ylmethyl)-benzo[b]thiophene-2-carboxamide hydrochloride], for which the inhibition at 5 µM (compound at 5 μM) is 19%.

With `N#CCc1ccc(-c2ccc3cc(C(=O)NCC4CCNCC4)sc3c2)cc1` [Compound 41, 6-(4-(Cyanomethyl)phenyl)-N-(piperidin-4-ylmethyl)-benzo[b]thiophene-2-carboxamide hydrochloride], the inhibition at 5 µM (compound at 5 μM) was roughly 50%.

Take `N#Cc1ccc(-c2ccc3cc(C(=O)NCC4CCNCC4)sc3c2)cc1F` [Compound 42, 6-(4-Cyano-3-fluorophenyl)-N-(piperidin-4-ylmethyl)-benzo[b]thiophene-2-carboxamide hydrochloride]: where the note is “compound at 5 μM”, the inhibition at 5 µM came out at 26%. Same read-out and setting: as for `CS(=O)(=O)c1ccc(-c2ccc3cc(C(=O)NCC4CCNCC4)sc3c2)cc1` [Compound 43, 6-(4-(Methylsulfonyl)phenyl)-N-(piperidin-4-ylmethyl)-benzo[b]thiophene-2-carboxamide hydrochloride], the figure is 49%; as for `O=C(NCC1CCNCC1)c1cc2ccc(-c3ccc(OC(F)(F)F)cc3)cc2s1` [Compound 44, 6-(4-Trifluoromethoxylphenyl)-N-(piperidin-4-ylmethyl)-benzo[b]thiophene-2-carboxamide hydrochloride], 14%.

For `COc1ccc(-c2ccc3cc(C(=O)NCC4CCNCC4)sc3c2)cc1` [Compound 45, 6-(4-Methoxylphenyl)-N-(piperidin-4-ylmethyl)-benzo[b]thiophene-2-carboxamide hydrochloride], where the note is “compound at 5 μM”, the inhibition at 5 µM stood at 43%.

A word on the % Inhibition: it is the change of the read-out against control, counted positive when it falls. The term IC50 denotes the midpoint of a concentration-inhibition curve. Usually inhibition stands for the drop in the measured response relative to a control, in per cent.
